Test results reported in ChEMBL document CHEMBL4346741, “Synthesis, pharmacological evaluation, and mechanistic study of adefovir mixed phosphonate derivatives bearing cholic acid and l-amino acid moieties for the treatment of HBV” (Bioorg Med Chem, 2019).

Experiments:
[1] = Selectivity index, ratio of CC50 for cytotoxicity against human HepG2.2.15 cells to EC50 for HBV infected in human HepG2.2.15 cells; assay type: toxicity, cell-based; settings: read-out: Ratio CC50/EC50
Hepatitis B virus = assay: Antiviral activity against Hepatitis B virus infected in human HepG2.2.15 cells assessed as inhibition of viral DNA synthesis incubated for 2 days followed by replacement of fresh medium containing compound and measured at day 10 by RT-PCR analysis; assay type: functional, organism-based
HepG2 2.2.15 = assay: Cytotoxicity against human HepG2.2.15 cells assessed as reduction in cell viability incubated for 12 hrs followed by replacement of fresh medium containing compound and measured after 2 days by CCK-8 assay; assay type: functional
[2] = substrate: [H][C@@]12C[C@H](O)CC[C@]1(C)[C@@]1([H])CC[C@@]3(C)[C@@]([H])(CC[C@]3([H])[C@H](C)CCC(=O)OCCCOP(=O)(COCCn3cnc4c(N)ncnc43)OCCCOC(=O)[C@H](N)[C@@H](C)CC)[C@]1([H])[C@@H](O)C2; assay: (§1) Substrate activity at human NTCP expressed in HEK293 cells harboring pEGFP assessed as Km for transporter-mediated drug uptake measured for 30 mins in presence of sodium chloride by UPLC-MS/MS analysis; assay type: cell-based
[3] = substrate: [H][C@@]12C[C@H](O)CC[C@]1(C)[C@@]1([H])CC[C@@]3(C)[C@@]([H])(CC[C@]3([H])[C@H](C)CCC(=O)OCCCOP(=O)(COCCn3cnc4c(N)ncnc43)OCCCOC(=O)[C@H](N)CC(C)C)[C@]1([H])[C@@H](O)C2; assay: as §1; assay type: cell-based
[4] = substrate: [H][C@@]12C[C@H](O)CC[C@]1(C)[C@@]1([H])CC[C@@]3(C)[C@@]([H])(CC[C@]3([H])[C@H](C)CCC(=O)OCCCOP(=O)(COCCn3cnc4c(N)ncnc43)OCCCOC(=O)[C@@H](C)N)[C@]1([H])[C@@H](O)C2; assay: as §1; assay type: cell-based
[5] = substrate: [H][C@@]12C[C@H](O)CC[C@]1(C)[C@@]1([H])CC[C@@]3(C)[C@@]([H])(CC[C@]3([H])[C@H](C)CCC(=O)OCCCOP(=O)(COCCn3cnc4c(N)ncnc43)OCCCOC(=O)[C@H](N)C(C)C)[C@]1([H])[C@@H](O)C2; assay: as §1; assay type: cell-based

| Molecule | selectivity ratio [1] | EC50 (Hepatitis B virus) [µM] | CC50 (HepG2 2.2.15) [µM] | also measured |
| --- | --- | --- | --- | --- |
| CC(C)[C@@H](N)C(=O)OCCCOP(=O)(COCCn1cnc2c(N)ncnc21)OCCCOC(=O)CC[C@@H](C)[C@H]1CC[C@H]2[C@@H]3CC[C@@H]4C[C@H](O)CC[C@]4(C)[C@H]3C[C@H](O)[C@]12C (some centres undefined) | 59.2 | 11.2 | 666 | – |
| CC[C@H](C)[C@@H](N)C(=O)OCCCOP(=O)(COCCn1cnc2c(N)ncnc21)OCCCOC(=O)CC[C@@H](C)[C@H]1CC[C@H]2[C@@H]3CC[C@@H]4C[C@H](O)CC[C@]4(C)[C@H]3C[C@H](O)[C@]12C (some centres undefined) | 42.5 | 44.1 | 1880 | – |
| C[C@H](CCC(=O)OCCCOP(=O)(COCCn1cnc2c(N)ncnc21)OCCCOC(=O)[C@@H](C)N)[C@H]1CC[C@H]2[C@@H]3CC[C@@H]4C[C@H](O)CC[C@]4(C)[C@H]3C[C@H](O)[C@]12C (some centres undefined) | 48.8 | 21.5 | 1050 | – |
| C[C@H](CCC(=O)OCCCOP(=O)(COCCn1cnc2c(N)ncnc21)OCCCSC(=O)[C@@H](N)Cc1ccccc1)[C@H]1CC[C@H]2[C@@H]3[C@@H](O)C[C@@H]4C[C@H](O)CC[C@]4(C)[C@H]3CC[C@]12C (some centres undefined) | 103 | 29.4 | 3040 | – |
| C[C@H](CCC(=O)OCCCOP(=O)(COCCn1cnc2c(N)ncnc21)OCCCOC(=O)[C@@H](C)N)[C@H]1CC[C@H]2[C@@H]3[C@@H](O)C[C@@H]4C[C@H](O)CC[C@]4(C)[C@H]3CC[C@]12C (some centres undefined) | 90 | 5.44 | 489 | – |
| CC(C)[C@@H](N)C(=O)OCCCOP(=O)(COCCn1cnc2c(N)ncnc21)OCCCOC(=O)CC[C@@H](C)[C@H]1CC[C@H]2[C@@H]3[C@@H](O)C[C@@H]4C[C@H](O)CC[C@]4(C)[C@H]3CC[C@]12C (some centres undefined) | 122 | 3.34 | 407 | – |
| CC(C)[C@H](N)C(=O)SCCCOP(=O)(COCCn1cnc2c(N)ncnc21)OCCCOC(=O)CC[C@@H](C)[C@H]1CC[C@H]2[C@@H]3[C@@H](O)C[C@@H]4C[C@H](O)CC[C@]4(C)[C@H]3CC[C@]12C (some centres undefined) | 19 | 97 | 1840 | – |
| CC(C)C[C@H](N)C(=O)SCCCOP(=O)(COCCn1cnc2c(N)ncnc21)OCCCOC(=O)CC[C@@H](C)[C@H]1CC[C@H]2[C@@H]3[C@@H](O)C[C@@H]4C[C@H](O)CC[C@]4(C)[C@H]3CC[C@]12C (some centres undefined) | 140 | 14.8 | 2070 | – |
| CC(C)C[C@@H](N)C(=O)OCCCOP(=O)(COCCn1cnc2c(N)ncnc21)OCCCOC(=O)CC[C@@H](C)[C@H]1CC[C@H]2[C@@H]3CC[C@@H]4C[C@H](O)CC[C@]4(C)[C@H]3C[C@H](O)[C@]12C (some centres undefined) | 89.7 | 9.77 | 876 | – |
| C[C@H](CCC(=O)OCCCOP(=O)(COCCn1cnc2c(N)ncnc21)OCCCSC(=O)[C@@H](N)Cc1ccccc1)[C@H]1CC[C@H]2[C@@H]3CC[C@@H]4C[C@H](O)CC[C@]4(C)[C@H]3C[C@H](O)[C@]12C (some centres undefined) | 41.9 | 18.8 | 789 | – |
| CC[C@H](C)[C@@H](N)C(=O)OCCCOP(=O)(COCCn1cnc2c(N)ncnc21)OCCCOC(=O)CC[C@@H](C)[C@H]1CC[C@H]2[C@@H]3[C@@H](O)C[C@@H]4C[C@H](O)CC[C@]4(C)[C@H]3CC[C@]12C (some centres undefined) | 528 | 0.65 | 378 | – |
| CC(C)[C@H](N)C(=O)SCCCOP(=O)(COCCn1cnc2c(N)ncnc21)OCCCOC(=O)CC[C@@H](C)[C@H]1CC[C@H]2[C@@H]3CC[C@@H]4C[C@H](O)CC[C@]4(C)[C@H]3C[C@H](O)[C@]12C (some centres undefined) | 62.5 | 16.4 | 1020 | – |
| Hepatic sodium/bile acid cotransporter (Homo sapiens) (protein) MEAHNASAPFNFTLPPNFGKRPTDLALSVILVFMLFFIMLSLGCTMEFSKIKAHLWKPKGLAIALVAQYGIMPLTAFVLGKVFRLKNIEALAILVCGCSPGGNLSNVFSLAMKGDMNLSIVMTTCSTFCALGMMPLLLYIYSRGIYDGDLKDKVPYKGIVISLVLVLIPCTIGIVLKSKRPQYMRYVIKGGMIIILLCSVAVTVLSAINVGKSIMFAMTPLLIATSSLMPFIGFLLGYVLSALFCLNGRCRRTVSMETGCQNVQLCSTILNVAFPPEVIGPLFFFPLLYMIFQLGEGLLLIAIFWCYEKFKTPKDKTKMIYTAATTEETIPGALGNGTYKGEDCSPCTA | – | – | – | Km [2]: 102 µM; Vmax [2]: 6.86 µmol/min/mg; Km [3]: 45.5 µM; Vmax [3]: 9.61 µmol/min/mg; Km [4]: 48.2 µM; Vmax [4]: 8.28 µmol/min/mg; Km [5]: 113 µM; Vmax [5]: 7.95 µmol/min/mg |
